Data: US8551951B2, “Pharmaceutical preparations and methods for inhibiting tumors” (Aenorasis SA Pharmaceuticals and Medical Devices, priority 2000, dated 2013)
Peptide text beside a SMILES is read from it.

Key:
human PC-3 tumor = experiment: Studies PC3-6 and PC3-12, human PC-3 prostate cancer nude mouse xenograft model; assay type: in vivo, nude mice
From the text: Studies PC3-6 and PC3-12 (FIGS. 26-27) are consecutive group experiments designed to characterize the in vivo activity of PCK3145 in the human PC-3 prostate cancer nude mouse xenograft model and to explore relationships between dose, route and schedule of administration and the efficacy parameters of tumor growth (volume).
PC-3 cells harvested in mid-log phase were inoculated at 5×10^6 cells per mice via the subcutaneous route in the mice's back area. Tumors grown from this inoculum were excised at approximately day 32 to 35 post-tumor implantation (p.t.i) when tumor volume reached 200-300 mm^3 (i.e., cu mm). The necrotic tissue was removed and the viable tumor mass cut into small pieces (approximately 1 to 3 mm^3) were implanted SC in the flank region at two opposite sites of the mouse. Treatment with various concentrations of PCK3145 was initiated at day 3 post-tumor implantation (p.t.i) and was continued daily for 21 days. Subcutaneous injections were done below tumor growth sites. Intra-peritoneal injections were performed in the abdominal region. Intra-venous injections were performed via the lateral tail vein. The experiment was terminated 24 hours after the last treatment. Tumor measurements were taken at Days 11, 14, 16, 18, 20, 22 and 24 post-tumor implantation (p.t.i). Tumor volumes were calculated according to formula (a×b^2×0.5), where a—is the length of the long diameter, and b—is the width of the perpendicular small diameter.
Study No: PC3-6 illustrates the efficacy of PCK3145, injected subcutaneously, in tumor growth retardation in Nude mice, which have received PC-3 implants. Mice were separated in different group each receiving various amounts of PCK3145 (SEQ ID NO: 5) or control reagents. The different groups used in these experiments are illustrated in table 6 below. Each group contained 10 mice. Doxorubicin was administered as single bolus intra-venous injection on days 3 and 11 post-tumor implantation (p.t.i).
Study No: PC3-12 illustrates the efficacy of PCK3145 in tumor growth retardation in Nude mice, which have received PC-3 implants. Mice were separated in different group each receiving various amounts of PCK3145 (SEQ ID NO: 5) or control reagents. PCK3145 was injected either through intra-venous or intra-peritoneal route. The different groups used in these experiments are illustrated in table 7 below. Each group contained 9 mice.

Dunning Mat Ly Lu tumors = experiment: Studies MLL-5 and MLL-6, Mat Ly Lu tumor implanted in Copenhagen rats; assay type: in vivo
Description: Anti-tumor efficacy evaluation of PCK3145 against Mat Ly Lu (MLL) tumor implanted in Copenhagen rats was performed. (Protocol based on S. Garde et al.; The Prostate, 22: 225-233, 1993). Mat LyLu tumor cells were harvested in mid-log phase from the culture flasks by trypsinization, were centrifuged at 1200 rotation per minute (rpm) and washed three timed with Hanks balanced salt solution (HBSS). Following washing, cells were counted and adjusted to a concentration of 5×10^6 cells/ml in HBSS. A 0.1 ml volume of tumor cell inoculum containing 5×10^5 cells was administered subcutaneously into the flank region of each rat. Treatment started at day 3 post-tumor implantation (p.t.i) by local subcutaneous injection (i.e., in the shaved back area just below tumor implantation site) of various PCK3145 concentrations. This treatment was continued daily for 16 days. Experiments were terminated 24 hours after the last treatment. Tumor measurements were taken at days 7, 9, 11, 14, 16 and 18. Tumor volumes are calculated according to formula (a×b^2×0.5), where a—is the length of the long diameter, b—width of the perpendicular small diameter. At day 19 tumors of individual rats were excised and weighed.
Study No: MLL-5 illustrates the efficacy of PCK3145 (SEQ ID NO: 5) compared with polypeptide 7-21 (SEQ ID NO: 4) and polypeptide 76-94 (SEQ ID NO: 6) in tumor growth retardation in Copenhagen rats, which have received Mat Ly Lu implants. Mice were separated in different groups, each receiving various amount of PCK3145 (SEQ ID NO: 5) or control reagents. PCK3145 was injected through the subcutaneous route. The different groups used in these experiments are illustrated in table 8 below. Each group contained 8 mice.
Study No: MLL-6 illustrates the efficacy of PCK3145 (SEQ ID NO: 5) in tumor growth retardation in Copenhagen rats, which have received Mat Ly Lu implants. Mice were separated in different group each receiving various amounts of PCK3145 (SEQ ID NO: 5) or control reagents. PCK3145 was injected through the subcutaneous route. The different groups used in these experiments are illustrated in table 9 below. Each group contained 8 mice. Doxorubicin was administered as single bolus via intra-venous injection on day 3 p.t.i.

PC-3 cells = experiment: [^3H]-Thymidine uptake assay; assay type: cell-based, human; conditions: GMP grade
Description: The in vitro growth inhibition effect of rHuPSP94 was assessed using [^3H]-Thymidine uptake assay. [^3H]-Thymidine uptake assay involves [^3H]-Thymidine incorporation into cellular DNA of actively proliferating cells. It measures the proliferative index of the cells versus the MTS assay, which quantifies the number of lived cells following treatment. Cells were seeded in Costar 96 well cell culture flat bottom plates in RPMI supplemented media containing 50 μg/ml of bovine serum albumin (BSA) and 0.1 μM FeSO4. PC-3 cells were exposed to various concentrations of rHuPSP94 for 72 hours and during the final 16 hours of incubation cells were pulsed with 1 μCi of [^3H]-Thymidine. The radioactivity in each well of the plate is counted by a beta-counter and is expressed as total counts per minutes (cpm). Results of in vitro effect of rHuPSP94 on PC-3 cells using the ^3[H]-Thymidine uptake assay are summarized in Table 3 and are expressed as percentage of radioactivity measured for treated-cells relative to the radioactivity measured for non-treated cells (for which [^3H]-thymidine uptake value was set at 100%).
[^3H]-Thymidine uptake assay involves [^3H]-Thymidine incorporation into cellular DNA of actively proliferating cells. [^3H]-Thymidine uptake assay measures the proliferative index of the cells versus the MTS assay, which quantifies the number of lived cells following treatment. The anti-proliferative effects of PCK3145 and two other synthetic polypeptides derived from the amino and carboxy terminus ends of PSP94 (SEQ ID NO: 4 and NO: 6, respectively) as well as the decapeptide (SEQ ID NO: 3) previously shown to mimic the biological action of native PSP94 were assessed in [H3]-Thymidine uptake assay on PC-3 cells. Two separate experiments were conducted with GMP-grade PCK3145.

## C[C@@H](O)[C@H](NC(=O)[C@H](CCC(=O)O)NC(=O)[C@H](Cc1ccc(O)cc1)NC(=O)[C@H](CS)NC(=O)[C@@H](NC(=O)[C@H](CS)NC(=O)[C@@H](NC(=O)[C@H](CCC(=O)O)NC(=O)[C@H](CS)NC(=O)[C@H](CC(N)=O)NC(=O)[C@H](CC(=O)O)NC(=O)[C@@H](NC(=O)[C@H](CCC(N)=O)NC(=O)[C@H](Cc1c[nH]c2ccccc12)NC(=O)[C@@H](N)CCC(=O)O)[C@@H](C)O)[C@@H](C)O)[C@@H](C)O)C(=O)O [PCK3145, EWQTDNCETCTCYET] (H-EWQTDNCETCTCYET-OH; N-terminus and C-terminus assumed)
Human PC-3 tumor; 10 μg/kg/day and 100 μg/kg/day
  anti-tumor effect on subcutaneous injection at a site distant from tumor (scruff of the neck): might not be efficacious enough
Human PC-3 tumor; 10 μg/kg/day s.c. below tumor sites, daily for 21 days, p=0.001 to 0.002 vs PBS
  tumor growth (volume), study PC3-6: significant PC-3 tumor growth retardation
Human PC-3 tumor; 100 μg/kg/day intra-venous, days 13, 17 and 20
  tumor growth (volume), study PC3-12: significant tumor growth retardation
Human PC-3 tumor; 10, 500 and 1000 μg/kg/day intra-venous
  tumor growth (volume), study PC3-12: No significant anti-tumor effect
Human PC-3 tumor; 500 and 1000 μg/kg/day intra-venous
  tumor growth (volume), study PC3-12: trend towards significance
Dunning Mat Ly Lu tumors; 1 μg/kg/day s.c.
  anti-tumor effect (tumor volume), study MLL-5: No significant effect
Dunning Mat Ly Lu tumors; 10 μg/kg/day s.c., days 11, 13, 16, 18
  anti-tumor effect (tumor volume), study MLL-5: significant anti-tumor effect
Dunning Mat Ly Lu tumors; 100 μg/kg/day s.c., days 14, 16 and 18
  tumor volume reduction over control, study MLL-6: 31%
Dunning Mat Ly Lu tumors; 100 μg/kg/day, day 18 p.t.i
  difference in tumor weight between control and treated group, study MLL-6: 20 gram
Dunning Mat Ly Lu tumors; 100 μg/kg/day, day 18 p.t.i, control 56.6 g
  tumor weight, study MLL-6: 37.2 g
Dunning Mat Ly Lu tumors; 100 μg/kg/day, day 18 p.t.i, p=0.0003
  reduction in tumor mass, study MLL-6: 34%
Dunning Mat Ly Lu tumors; 10 and 100 μg/kg/day s.c.
  anti-tumor effect, study MLL-6: significant dose-dependent anti-tumor effect
PC-3 cells; 200 μg/ml, first experiment
  reduction in [^3H]-Thymidine uptake: ~40%
PC-3 cells; 400 μg/ml, second experiment
  inhibition of [^3H]-Thymidine uptake: 25%

## polypeptide 7-21: PSP94 derived synthetic polypeptide from the amino terminus end, SEQ ID NO: 4 (NEGVPGDSTRKCMDL; Polypeptide 7-21)
Human PC-3 tumor; mouse, in vivo
  anti-tumor effect in the PC-3 nude mouse xenograft model: also observed in the PC-3 nude mouse xenograft model
Dunning Mat Ly Lu tumors; s.c., days 13, 16, 18, dose not given
  anti-tumor effect (tumor volume), study MLL-5: comparable anti-tumor effect
